According to patent US8598206B2, “Trypsin-like serine protease inhibitors, and their preparation and use” (The Medicines Company (Leipzig) GmbH, priority 2010, dated 2013):

How the values were obtained:
Format in all cases: biochemical
human urinary kallikrein = human urinary kallikrein (Homo sapiens (Human), UniProt P06870); test: Inhibition of human urinary kallikrein; conditions: S-2266 substrate; read-out: h uKK Ki
Protocol: (§1) The inhibitory effect for the individual enzymes was determined in analogy to a previously disclosed method (Stürzebecher et al., J. Med. Chem., 40, 3091-3099 (1997)).
(§2) 200 μl of TBS (0.05 M trishydroxymethylaminomethane; 0.154 M NaCl, 2% ethanol, pH 8.0)
(§3) 2 μL of a test compound solution in 50% v/v DMSO/water
(§4) For zero order kinetics, the reaction was stopped after 20 min by adding 15 μl of acetic acid (80% v/v), and the absorption at 405 nm was determined using a Microplate Reader (Multiscan Ascent™, from Thermo). In the case of pseudo-first order kinetics, the reaction rates in the equilibrium state were determined by continuously recording the change in absorbance at 405 nm. The Ki values were calculated by parameter fitting in accordance with the rate equation for competitive inhibition using the GraFit software, version 4. The Ki values are the average of at least three determinations.

[1] = target: human activated protein C (Homo sapiens (Human), UniProt P04070); test: Inhibition of human activated protein C; conditions: Pefachrome PCa substrate; read-out: h aPC Ki
Protocol: as §1, §2, §3, §4

[2] = target: human activated C1s complement component (Homo sapiens (Human), UniProt P09871); test: Inhibition of human C1s; conditions: S2314 substrate; read-out: h C1s Ki
Protocol: as §1, §2, §3, §4
Subcomponent “s” of Human Complement Component 1 (h C1s): Inhibition of human C1s was determined by the method described in [0092]-[0098] using native human activated C1s complement component from Calbiochem at 29 nM and Val-Ser-Arg-pNA (S2314) at 8 mM, 6 mM, and 4 mM as substrate; results are reported as Ki values (nanomolar).

human alpha-thrombin = human alpha-thrombin (Homo sapiens (Human), UniProt P00734); test: Inhibition of human Factor IIa; conditions: Pefachrome tPA substrate; read-out: h FIIa Ki
Protocol: as §1, §2, §3, §4

plasmin = plasmin (Homo sapiens (Human), UniProt P00747); test: Determination of inhibition constants for human plasmin (chromogenic substrate); conditions: 25° C., Chromozym PL substrate; read-out: h plasmin Ki
Protocol: (§5) Determination of the Inhibition Constants for Human Plasmin (h Plasmin) and Human Plasma Kallikrein (h PK)
as §1, §2
(§6) 25 μl of substrate (4 mM, 2 mM and 1 mM tosyl-Gly-Pro-Lys-pNA=Chromozym PL from LOXO for plasmin and 3 mM, 1.5 mM and 1 mM H-D-Pro-Phe-Arg-pNA=S2302 from Chromogenix for PK, dissolved in H2O)
as §3
(§7) 50 μl of enzyme solution (plasmin from Calbiochem: 1.7 mU/ml in 0.154 M NaCl+0.1% BSA m/v; plasma kallikrein from Enzyme Research Lab.: 62 ng/ml in 0.154 M NaCl+0.1% BSA m/v)
as §4

human Factor XIa = human Factor XIa (Homo sapiens (Human), UniProt P03951); test: Inhibition of human Factor XIa; conditions: Pefachrome PCa substrate; read-out: h FXIa Ki
Protocol: as §1, §2, §3, §4

human Factor Xa = human Factor Xa (Homo sapiens (Human), UniProt P00742); test: Inhibition of human Factor Xa; conditions: Pefachrome FXa substrate; read-out: h FXa Ki
Protocol: The inhibitory effect for the individual enzymes was determined in analogy to a previously disclosed method (Stürzebecher et al., J. Med. […] In the case of pseudo-first order kinetics, the reaction rates in the equilibrium state were determined by continuously recording the change in absorbance at 405 nm. […] The Ki values are the average of at least three determinations. Human Factor Xa (h FXa): […]

plasma kallikrein = plasma kallikrein (Homo sapiens (Human), UniProt P03952); test: Determination of inhibition constants for human plasma kallikrein (chromogenic substrate); conditions: 25° C., S2302 substrate; read-out: h PK Ki
Protocol: as §5, §1, §2, §6, §3, §7, §4

[3] = target: human activated C1r complement component (Homo sapiens (Human), UniProt P00736); test: Inhibition of human C1r; conditions: S2314 substrate; read-out: h C1r Ki
Protocol: as §1, §2, §3, §4

human t-PA = human t-PA (Homo sapiens (Human), UniProt P00750); test: Inhibition of human tissue-type plasminogen activator; conditions: Pefachrome tPA substrate; read-out: h t-PA Ki
Protocol: as §1, §2, §3, §4

human alpha-FXIIa = human alpha-FXIIa (Homo sapiens (Human), UniProt P00748); test: Inhibition of human alpha-Factor XIIa; conditions: CHA-Gly-Arg-pNA substrate; read-out: h FXIIa Ki
Protocol: as §1, §2, §3, §4

human activated protein C, sequence (P04070 212-450): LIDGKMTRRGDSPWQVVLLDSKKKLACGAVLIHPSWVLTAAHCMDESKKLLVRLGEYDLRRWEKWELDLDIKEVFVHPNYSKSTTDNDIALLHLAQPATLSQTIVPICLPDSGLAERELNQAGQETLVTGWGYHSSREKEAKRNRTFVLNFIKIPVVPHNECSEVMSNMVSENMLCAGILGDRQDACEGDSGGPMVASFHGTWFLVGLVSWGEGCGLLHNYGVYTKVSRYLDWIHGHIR
human activated protein C, sequence (P04070 43-197 partner): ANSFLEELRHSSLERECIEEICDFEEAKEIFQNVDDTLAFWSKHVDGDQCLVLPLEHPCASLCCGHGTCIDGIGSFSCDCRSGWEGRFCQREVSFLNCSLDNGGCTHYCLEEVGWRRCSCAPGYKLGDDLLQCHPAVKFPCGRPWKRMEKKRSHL
human activated C1s complement component, sequence (P09871 438-688): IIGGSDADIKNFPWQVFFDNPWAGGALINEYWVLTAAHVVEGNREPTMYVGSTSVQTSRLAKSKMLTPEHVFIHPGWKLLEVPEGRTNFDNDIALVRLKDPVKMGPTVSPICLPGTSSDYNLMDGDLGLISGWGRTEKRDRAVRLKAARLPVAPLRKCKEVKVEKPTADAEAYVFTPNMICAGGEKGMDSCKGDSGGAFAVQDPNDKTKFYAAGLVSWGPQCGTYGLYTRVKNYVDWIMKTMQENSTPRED
human activated C1s complement component, sequence (P09871 16-437 partner): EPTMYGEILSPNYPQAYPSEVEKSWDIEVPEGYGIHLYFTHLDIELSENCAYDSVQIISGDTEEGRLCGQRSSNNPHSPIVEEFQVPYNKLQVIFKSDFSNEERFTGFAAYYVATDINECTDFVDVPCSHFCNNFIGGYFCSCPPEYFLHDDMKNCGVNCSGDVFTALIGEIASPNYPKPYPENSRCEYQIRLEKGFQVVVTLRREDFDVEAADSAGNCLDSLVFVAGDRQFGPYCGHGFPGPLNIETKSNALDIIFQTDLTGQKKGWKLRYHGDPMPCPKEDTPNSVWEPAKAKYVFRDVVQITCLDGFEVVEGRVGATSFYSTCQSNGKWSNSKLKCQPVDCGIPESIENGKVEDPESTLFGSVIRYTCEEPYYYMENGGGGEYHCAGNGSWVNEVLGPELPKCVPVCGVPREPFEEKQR
human urinary kallikrein, sequence (P06870 25-262): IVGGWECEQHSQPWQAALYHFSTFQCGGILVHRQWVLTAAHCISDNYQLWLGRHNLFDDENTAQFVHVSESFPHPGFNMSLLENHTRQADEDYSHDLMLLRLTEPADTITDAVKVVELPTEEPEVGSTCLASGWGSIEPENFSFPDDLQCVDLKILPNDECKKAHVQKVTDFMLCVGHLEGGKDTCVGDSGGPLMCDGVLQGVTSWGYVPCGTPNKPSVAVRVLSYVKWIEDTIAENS
plasmin, sequence (P00747 581-810): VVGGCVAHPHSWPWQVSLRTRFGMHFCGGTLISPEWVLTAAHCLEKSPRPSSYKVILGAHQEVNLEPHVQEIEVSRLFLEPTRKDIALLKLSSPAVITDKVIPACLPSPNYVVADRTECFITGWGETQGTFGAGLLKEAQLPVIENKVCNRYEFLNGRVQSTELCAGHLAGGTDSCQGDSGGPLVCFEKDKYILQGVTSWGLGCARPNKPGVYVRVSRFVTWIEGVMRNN
plasmin, sequence (P00747 97-580 partner): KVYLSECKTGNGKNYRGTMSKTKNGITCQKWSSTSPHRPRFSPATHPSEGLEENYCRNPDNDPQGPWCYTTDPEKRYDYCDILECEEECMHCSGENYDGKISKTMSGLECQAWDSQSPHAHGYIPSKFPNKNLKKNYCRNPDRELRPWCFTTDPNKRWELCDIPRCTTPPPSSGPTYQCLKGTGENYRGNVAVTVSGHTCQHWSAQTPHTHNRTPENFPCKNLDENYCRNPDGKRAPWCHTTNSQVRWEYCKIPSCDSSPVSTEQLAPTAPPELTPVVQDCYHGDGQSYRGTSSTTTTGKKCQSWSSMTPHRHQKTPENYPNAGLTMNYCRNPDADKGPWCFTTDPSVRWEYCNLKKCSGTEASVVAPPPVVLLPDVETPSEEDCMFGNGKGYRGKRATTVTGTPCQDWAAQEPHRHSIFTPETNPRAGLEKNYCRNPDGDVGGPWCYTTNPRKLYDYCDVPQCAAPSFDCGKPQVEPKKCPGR
human alpha-FXIIa, sequence (P00748 373-615): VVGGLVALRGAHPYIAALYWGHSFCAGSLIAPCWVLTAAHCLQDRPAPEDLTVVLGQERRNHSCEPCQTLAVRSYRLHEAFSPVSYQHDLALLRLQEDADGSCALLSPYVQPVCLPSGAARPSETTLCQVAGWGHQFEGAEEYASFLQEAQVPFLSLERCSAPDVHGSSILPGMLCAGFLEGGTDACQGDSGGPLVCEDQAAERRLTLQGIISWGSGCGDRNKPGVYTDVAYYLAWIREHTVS
human alpha-FXIIa, sequence (P00748 20-372 partner): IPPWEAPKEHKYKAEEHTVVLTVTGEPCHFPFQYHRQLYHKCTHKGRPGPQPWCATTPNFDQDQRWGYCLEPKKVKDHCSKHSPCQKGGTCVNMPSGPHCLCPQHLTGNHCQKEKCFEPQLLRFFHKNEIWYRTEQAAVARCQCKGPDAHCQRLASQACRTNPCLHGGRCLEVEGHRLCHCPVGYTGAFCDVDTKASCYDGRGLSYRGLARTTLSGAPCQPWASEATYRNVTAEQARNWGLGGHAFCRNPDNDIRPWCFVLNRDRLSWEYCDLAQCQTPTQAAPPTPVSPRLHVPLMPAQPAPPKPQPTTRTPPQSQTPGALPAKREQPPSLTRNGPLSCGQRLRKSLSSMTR
human Factor Xa, sequence (P00742 235-488): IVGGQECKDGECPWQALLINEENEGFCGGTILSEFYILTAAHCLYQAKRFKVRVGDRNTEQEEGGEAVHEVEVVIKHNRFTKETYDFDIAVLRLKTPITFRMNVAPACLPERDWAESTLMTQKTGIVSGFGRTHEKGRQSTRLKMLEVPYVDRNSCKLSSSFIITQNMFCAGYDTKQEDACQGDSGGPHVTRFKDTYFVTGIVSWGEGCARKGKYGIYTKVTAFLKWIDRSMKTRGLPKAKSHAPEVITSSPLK
human Factor Xa, sequence (P00742 41-179 partner): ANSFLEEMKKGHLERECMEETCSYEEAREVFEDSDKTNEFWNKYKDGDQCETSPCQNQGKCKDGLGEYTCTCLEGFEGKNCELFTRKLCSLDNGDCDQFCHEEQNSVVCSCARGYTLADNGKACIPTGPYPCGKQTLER
human t-PA, sequence (P00750 36-562): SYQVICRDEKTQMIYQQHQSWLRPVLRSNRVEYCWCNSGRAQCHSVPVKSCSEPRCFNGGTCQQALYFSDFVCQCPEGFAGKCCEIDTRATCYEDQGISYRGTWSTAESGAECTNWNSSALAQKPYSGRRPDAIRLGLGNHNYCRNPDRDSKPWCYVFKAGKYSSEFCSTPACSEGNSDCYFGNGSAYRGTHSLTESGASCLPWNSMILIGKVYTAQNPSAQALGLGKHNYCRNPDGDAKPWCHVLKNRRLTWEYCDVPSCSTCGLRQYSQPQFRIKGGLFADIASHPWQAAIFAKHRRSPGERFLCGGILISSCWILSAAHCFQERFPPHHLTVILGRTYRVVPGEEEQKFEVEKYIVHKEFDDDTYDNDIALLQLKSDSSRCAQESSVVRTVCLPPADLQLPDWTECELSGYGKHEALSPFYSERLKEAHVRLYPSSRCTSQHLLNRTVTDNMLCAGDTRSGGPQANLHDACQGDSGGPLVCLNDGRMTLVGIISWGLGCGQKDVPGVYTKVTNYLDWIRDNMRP
human activated C1r complement component, sequence (P00736 464-705): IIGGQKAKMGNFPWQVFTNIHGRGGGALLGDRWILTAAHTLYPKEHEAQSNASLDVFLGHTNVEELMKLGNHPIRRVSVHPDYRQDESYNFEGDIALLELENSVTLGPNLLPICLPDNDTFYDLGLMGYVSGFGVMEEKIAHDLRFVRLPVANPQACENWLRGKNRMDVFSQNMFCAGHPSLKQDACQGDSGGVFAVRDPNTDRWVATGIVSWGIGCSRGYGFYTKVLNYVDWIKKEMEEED
human activated C1r complement component, sequence (P00736 18-463 partner): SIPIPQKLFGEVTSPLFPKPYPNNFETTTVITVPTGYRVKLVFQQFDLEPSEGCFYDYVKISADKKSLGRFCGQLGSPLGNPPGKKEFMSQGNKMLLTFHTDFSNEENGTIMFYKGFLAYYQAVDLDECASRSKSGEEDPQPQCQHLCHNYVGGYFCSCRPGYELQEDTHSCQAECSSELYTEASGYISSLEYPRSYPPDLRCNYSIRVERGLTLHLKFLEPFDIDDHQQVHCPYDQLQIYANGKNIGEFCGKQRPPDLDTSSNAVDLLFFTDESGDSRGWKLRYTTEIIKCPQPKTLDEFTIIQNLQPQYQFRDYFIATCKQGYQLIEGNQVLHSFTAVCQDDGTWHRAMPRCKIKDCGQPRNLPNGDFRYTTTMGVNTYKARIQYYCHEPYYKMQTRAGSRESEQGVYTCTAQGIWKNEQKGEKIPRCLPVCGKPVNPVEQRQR
human Factor XIa, sequence (P03951 388-625): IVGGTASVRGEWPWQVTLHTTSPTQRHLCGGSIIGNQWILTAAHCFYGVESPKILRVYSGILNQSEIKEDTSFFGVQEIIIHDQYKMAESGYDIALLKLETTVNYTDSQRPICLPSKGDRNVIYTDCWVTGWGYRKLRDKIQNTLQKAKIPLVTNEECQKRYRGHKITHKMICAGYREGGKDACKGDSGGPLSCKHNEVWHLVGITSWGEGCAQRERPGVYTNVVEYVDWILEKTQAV
human Factor XIa, sequence (P03951 19-387 partner): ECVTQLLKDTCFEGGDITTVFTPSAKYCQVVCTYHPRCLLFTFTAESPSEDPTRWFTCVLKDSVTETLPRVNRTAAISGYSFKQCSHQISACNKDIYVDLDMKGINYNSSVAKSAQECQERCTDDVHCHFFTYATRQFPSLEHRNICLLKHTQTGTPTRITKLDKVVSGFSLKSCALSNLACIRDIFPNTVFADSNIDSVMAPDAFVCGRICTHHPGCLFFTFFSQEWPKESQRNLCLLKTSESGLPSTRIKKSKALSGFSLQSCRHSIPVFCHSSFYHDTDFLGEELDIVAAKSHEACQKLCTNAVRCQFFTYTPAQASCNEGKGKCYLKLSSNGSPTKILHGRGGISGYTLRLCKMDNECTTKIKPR

| SMILES | Ki (human urinary kallikrein) | Ki [1] | Ki [2] | Ki (human alpha-thrombin) | Ki (plasmin) | Ki (human Factor XIa) | Ki (human Factor Xa) | Ki (plasma kallikrein) | Ki [3] | Ki (human t-PA) | Ki (human alpha-FXIIa) |
| --- | --- | --- | --- | --- | --- | --- | --- | --- | --- | --- | --- |
| N=C(N)c1ccc(CNC(=O)[C@H](CCC2CCNCC2)NC(=O)[C@@H](CCCn2cnnn2)NS(=O)(=O)Cc2ccccc2)cc1 | > 200000 nM | 1300 nM | > 10000 nM | 4700 nM | 8 nM | 1400 nM | 2400 nM | 5.3 nM | – | – | – |
| N=C(N)c1ccc(CNC(=O)[C@H](CCC2CCNCC2)NC(=O)[C@@H](CCCc2ccccc2)NS(=O)(=O)Cc2cccc(C(=O)O)c2)cc1 | > 20000 nM | 310 nM | 1200 nM | 4400 nM | 3.8 nM | 70 nM | 2400 nM | 3 nM | > 20000 nM | – | – |
| CC(=O)N1CCC(CC[C@@H](NS(=O)(=O)Cc2ccccc2)C(=O)N[C@@H](CCC2CCNCC2)C(=O)NCc2ccc(C(=N)N)cc2)CC1 | > 20000 nM | 1200 nM | > 20000 nM | 8000 nM | 1.8 nM | 1400 nM | 1900 nM | 5 nM | > 40000 nM | 4800 nM | 530 nM |
| N=C(N)c1ccc(CNC(=O)[C@H](CCC2CCNCC2)NC(=O)[C@@H](CCCC2CCNCC2)NS(=O)(=O)Cc2ccccc2)cc1 | > 50000 nM | 400 nM | 8000 nM | 800 nM | 2 nM | 800 nM | 300 nM | 7.5 nM | > 50000 nM | – | – |
| N=C(N)c1ccc(CNC(=O)[C@H](CCC2CCNCC2)NC(=O)[C@@H](CCC2CCN(C(=O)C3CC3)CC2)NS(=O)(=O)Cc2ccccc2)cc1 | > 50000 nM | 1500 nM | 19000 nM | 8500 nM | 0.6 nM | 650 nM | 2300 nM | 0.3 nM | > 50000 nM | 6100 nM | 1100 nM |
| CCC(=O)N1CCC(CC[C@@H](NS(=O)(=O)Cc2ccccc2)C(=O)N[C@@H](CCC2CCNCC2)C(=O)NCc2ccc(C(=N)N)cc2)CC1 | > 60000 nM | 1200 nM | > 25000 nM | 5600 nM | 0.8 nM | 720 nM | 2300 nM | 0.9 nM | > 35000 nM | 5100 nM | 650 nM |
| CC(=O)N1CCC(CCC[C@@H](NS(=O)(=O)Cc2ccccc2)C(=O)N[C@@H](CCC2CCNCC2)C(=O)NCc2ccc(C(=N)N)cc2)CC1 | > 500000 nM | 1100 nM | 9000 nM | 3800 nM | 1.5 nM | 870 nM | 750 nM | 2 nM | > 100000 nM | 3000 nM | 630 nM |
| N=C(N)c1ccc(CNC(=O)[C@H](CCC2CCNCC2)NC(=O)[C@@H](CCC2CCNCC2)NS(=O)(=O)Cc2ccccc2)cc1 | > 100000 nM | 60 nM | > 25000 nM | 4200 nM | 3 nM | 1400 nM | 90 nM | 7.5 nM | > 100000 nM | – | – |
| COCC(=O)N1CCC(CC[C@@H](NS(=O)(=O)Cc2ccccc2)C(=O)N[C@@H](CCC2CCNCC2)C(=O)NCc2ccc(C(=N)N)cc2)CC1 | > 100000 nM | 1200 nM | 20000 nM | 4500 nM | 1.2 nM | 1400 nM | 1600 nM | 1.3 nM | > 50000 nM | 4700 nM | 680 nM |
| N=C(N)c1ccc(CNC(=O)[C@H](CCC2CCNCC2)NC(=O)[C@@H](CCc2ccncc2)NS(=O)(=O)Cc2ccccc2)cc1 | > 200000 nM | 27 nM | 2000 nM | 3900 nM | 1.5 nM | 500 nM | 20 nM | 9 nM | > 20000 nM | – | – |
| CN(C)C(=O)N1CCC(CC[C@@H](NS(=O)(=O)Cc2ccccc2)C(=O)N[C@@H](CCC2CCNCC2)C(=O)NCc2ccc(C(=N)N)cc2)CC1 | > 200000 nM | 1600 nM | 13000 nM | 13000 nM | 0.8 nM | 1500 nM | 2500 nM | 4 nM | > 50000 nM | 8300 nM | 2000 nM |
| CNC(=O)N1CCC(CC[C@@H](NS(=O)(=O)Cc2ccccc2)C(=O)N[C@@H](CCC2CCNCC2)C(=O)NCc2ccc(C(=N)N)cc2)CC1 | > 200000 nM | 1100 nM | > 20000 nM | 4800 nM | 1 nM | 1300 nM | 1700 nM | 2 nM | > 20000 nM | 5300 nM | 550 nM |
| CCCC(=O)N1CCC(CC[C@@H](NS(=O)(=O)Cc2ccccc2)C(=O)N[C@@H](CCC2CCNCC2)C(=O)NCc2ccc(C(=N)N)cc2)CC1 | > 200000 nM | 1100 nM | > 10000 nM | 5500 nM | 0.6 nM | 870 nM | 2200 nM | 2 nM | > 15000 nM | 6100 nM | 800 nM |
| COC(=O)N1CCC(CC[C@@H](NS(=O)(=O)Cc2ccccc2)C(=O)N[C@@H](CCC2CCNCC2)C(=O)NCc2ccc(C(=N)N)cc2)CC1 | > 200000 nM | 1350 nM | > 10000 nM | 13000 nM | 0.7 nM | 720 nM | 2000 nM | 2 nM | > 20000 nM | 6600 nM | 1600 nM |
| CC(C)C(=O)N1CCC(CC[C@@H](NS(=O)(=O)Cc2ccccc2)C(=O)N[C@@H](CCC2CCNCC2)C(=O)NCc2ccc(C(=N)N)cc2)CC1 | > 200000 nM | 1700 nM | > 25000 nM | 13000 nM | 0.6 nM | 920 nM | 3200 nM | 1.5 nM | > 30000 nM | 6500 nM | 1300 nM |
| N=C(N)c1ccc(CNC(=O)[C@H](CCC2CCNCC2)NC(=O)[C@@H](CCCc2ccccc2)NS(=O)(=O)Cc2ccccc2)cc1 | > 50000 nM | 555 nM | > 5000 nM | 240 nM | 0.25 nM | 135 nM | 1100 nM | 1.5 nM | – | 1700 nM | 3000 nM |
| N=C(N)c1ccc(CNC(=O)[C@H](CCC2CCNCC2)NC(=O)[C@H](NS(=O)(=O)Cc2ccccc2)c2ccccc2)cc1 | – | 210 nM | – | 1700 nM | 2.2 nM | 1000 nM | 1600 nM | 20 nM | – | – | – |
| N=C(N)c1ccc(CNC(=O)[C@H](CCC2CCNCC2)NC(=O)[C@@H](CCc2cc[n+]([O-])cc2)NS(=O)(=O)Cc2ccccc2)cc1 | > 100000 nM | 250 nM | 4200 nM | 9000 nM | 5 nM | 2500 nM | 120 nM | 20 nM | > 50000 nM | – | – |
| COC(=O)N1CCC(CCC[C@@H](NS(=O)(=O)Cc2ccccc2)C(=O)N[C@@H](CCC2CCNCC2)C(=O)NCc2ccc(C(=N)N)cc2)CC1 | > 100000 nM | 800 nM | 6500 nM | 3600 nM | 1 nM | 600 nM | 400 nM | 1.5 nM | > 100000 nM | – | 400 nM |
